System: luciferase-expressing artificial recombinant rotavirus
Test: Screening test for anti-rotavirus drug using luciferase-expressing rotavirus in CV-1 cells (luminescence)
Assay type: cell-based, simian rotavirus
Experimental: CV-1 cells were seeded on 96-well culture plates at 1×10^5 cells/well on the previous day of infection. The CV-1 cells were infected with wild-type SA11 or the luciferase-expressing artificial recombinant rotavirus produced in Example 4 at an MOI of 0.001. After viral adsorption at 37° C. for 1 hour, the culture supernatant was removed, and DMEM (without FBS and with 0.5 μg/mL trypsin) containing 0, 1, 5, 10, 50, 100 or 200 μM ribavirin (Sigma-Aldrich) was added. Incubation was performed at 37° C. for 14 hours. After that, the substrate stock solution of Nano-Glo Luciferase Assay System (trade name, Promega) was added to the culture medium, and luminescence was detected with an in vivo imaging system (IVIS Spectrum, manufactured by Xenogen).

NC(=O)c1ncn([C@@H]2O[C@H](CO)[C@@H](O)[C@H]2O)n1 [ribavirin]
luminescence intensity (viral proliferation inhibitory effect) (MOI of 0.001, 0, 1, 5, 10, 50, 100 or 200 μM ribavirin, 14 hours): decreased in a ribavirin concentration-dependent manner
ribavirin concentration at which no luminescence was observed (MOI of 0.001, 14 hours): ≥ 50 µM
